From US8372843B2, “Quinolines useful as modulators of ION channels” (Vertex Pharmaceuticals Incorporated, priority 2005, dated 2013)
Where two headings read alike, the source gives them in different places.

Key:
[1] = test system: neuropathic pain; settings: in vivo; cited from earlier work
[2] = target: T1, NaV1.8 (Homo sapiens, UniProt Q9Y5Y9); test: Activity against NaV1.8 channel (Table 4); type: cell-based
Protocol: Compounds of the invention are useful as antagonists of voltage-gated sodium ion channels. Antagonist properties of test compounds were assessed as follows. Cells expressing the NaV of interest were placed into microtiter plates. After an incubation period, the cells were stained with fluorescent dyes sensitive to the transmembrane potential. The test compounds were added to the microtiter plate. The cells were stimulated with either a chemical or electrical means to evoke a NaV dependent membrane potential change from unblocked channels, which was detected and measured with trans-membrane potential-sensitive dyes. Antagonists were detected as a decreased membrane potential response to the stimulus. The optical membrane potential assay utilized voltage-sensitive FRET sensors described by Gonzalez and Tsien (See, Gonzalez, J. E. and R. Y. Tsien (1995) “Voltage sensing by fluorescence resonance energy transfer in single cells” Biophys J 69(4): 1272-80, and Gonzalez, J. E. and R. Y. Tsien (1997) “Improved indicators of cell membrane potential that use fluorescence resonance energy transfer” Chem Biol 4(4): 269-77) in combination with instrumentation for measuring fluorescence changes such as the Voltage/Ion Probe Reader (VIPR®) (See, Gonzalez, J. E., K. Oades, et al. (1999) “Cell-based assays and instrumentation for screening ion-channel targets” Drug Discov Today 4(9): 431-439). B) VIPR® optical membrane potential assay method with chemical stimulation
24 hours before the assay on VIPR, CHO cells endogenously expressing a NaV1.2 type voltage-gated NaV are seeded in 96-well poly-lysine coated plates at 60,000 cells per well. […] The cells are then incubated for 20-30 minutes. • 7) Once the incubation is complete, the cells are ready to be assayed on VIPR® with a sodium addback protocol. […]
The following is an example of how NaV1.3 inhibition activity is measured using the optical membrane potential method#2. […]

[3] = target: NaV1.6 (Homo sapiens, UniProt Q9UQD0); settings: read-out: TTX IC50; cited from earlier work
[4] = target: NaV1.1 (Homo sapiens, UniProt P35498); settings: read-out: TTX IC50; cited from earlier work
[5] = target: T1, NaV1.8; settings: read-out: TTX IC50; cited from earlier work
[6] = target: NaV1.3 (Homo sapiens, UniProt Q9NY46); settings: read-out: TTX IC50; cited from earlier work
[7] = target: NaV1.9 (Homo sapiens, UniProt Q9UI33); settings: read-out: TTX IC50; cited from earlier work
[8] = target: NaV1.2 (Homo sapiens, UniProt Q99250); settings: read-out: TTX IC50; cited from earlier work

T1 sequence (Q9Y5Y9 whole entry, looked up): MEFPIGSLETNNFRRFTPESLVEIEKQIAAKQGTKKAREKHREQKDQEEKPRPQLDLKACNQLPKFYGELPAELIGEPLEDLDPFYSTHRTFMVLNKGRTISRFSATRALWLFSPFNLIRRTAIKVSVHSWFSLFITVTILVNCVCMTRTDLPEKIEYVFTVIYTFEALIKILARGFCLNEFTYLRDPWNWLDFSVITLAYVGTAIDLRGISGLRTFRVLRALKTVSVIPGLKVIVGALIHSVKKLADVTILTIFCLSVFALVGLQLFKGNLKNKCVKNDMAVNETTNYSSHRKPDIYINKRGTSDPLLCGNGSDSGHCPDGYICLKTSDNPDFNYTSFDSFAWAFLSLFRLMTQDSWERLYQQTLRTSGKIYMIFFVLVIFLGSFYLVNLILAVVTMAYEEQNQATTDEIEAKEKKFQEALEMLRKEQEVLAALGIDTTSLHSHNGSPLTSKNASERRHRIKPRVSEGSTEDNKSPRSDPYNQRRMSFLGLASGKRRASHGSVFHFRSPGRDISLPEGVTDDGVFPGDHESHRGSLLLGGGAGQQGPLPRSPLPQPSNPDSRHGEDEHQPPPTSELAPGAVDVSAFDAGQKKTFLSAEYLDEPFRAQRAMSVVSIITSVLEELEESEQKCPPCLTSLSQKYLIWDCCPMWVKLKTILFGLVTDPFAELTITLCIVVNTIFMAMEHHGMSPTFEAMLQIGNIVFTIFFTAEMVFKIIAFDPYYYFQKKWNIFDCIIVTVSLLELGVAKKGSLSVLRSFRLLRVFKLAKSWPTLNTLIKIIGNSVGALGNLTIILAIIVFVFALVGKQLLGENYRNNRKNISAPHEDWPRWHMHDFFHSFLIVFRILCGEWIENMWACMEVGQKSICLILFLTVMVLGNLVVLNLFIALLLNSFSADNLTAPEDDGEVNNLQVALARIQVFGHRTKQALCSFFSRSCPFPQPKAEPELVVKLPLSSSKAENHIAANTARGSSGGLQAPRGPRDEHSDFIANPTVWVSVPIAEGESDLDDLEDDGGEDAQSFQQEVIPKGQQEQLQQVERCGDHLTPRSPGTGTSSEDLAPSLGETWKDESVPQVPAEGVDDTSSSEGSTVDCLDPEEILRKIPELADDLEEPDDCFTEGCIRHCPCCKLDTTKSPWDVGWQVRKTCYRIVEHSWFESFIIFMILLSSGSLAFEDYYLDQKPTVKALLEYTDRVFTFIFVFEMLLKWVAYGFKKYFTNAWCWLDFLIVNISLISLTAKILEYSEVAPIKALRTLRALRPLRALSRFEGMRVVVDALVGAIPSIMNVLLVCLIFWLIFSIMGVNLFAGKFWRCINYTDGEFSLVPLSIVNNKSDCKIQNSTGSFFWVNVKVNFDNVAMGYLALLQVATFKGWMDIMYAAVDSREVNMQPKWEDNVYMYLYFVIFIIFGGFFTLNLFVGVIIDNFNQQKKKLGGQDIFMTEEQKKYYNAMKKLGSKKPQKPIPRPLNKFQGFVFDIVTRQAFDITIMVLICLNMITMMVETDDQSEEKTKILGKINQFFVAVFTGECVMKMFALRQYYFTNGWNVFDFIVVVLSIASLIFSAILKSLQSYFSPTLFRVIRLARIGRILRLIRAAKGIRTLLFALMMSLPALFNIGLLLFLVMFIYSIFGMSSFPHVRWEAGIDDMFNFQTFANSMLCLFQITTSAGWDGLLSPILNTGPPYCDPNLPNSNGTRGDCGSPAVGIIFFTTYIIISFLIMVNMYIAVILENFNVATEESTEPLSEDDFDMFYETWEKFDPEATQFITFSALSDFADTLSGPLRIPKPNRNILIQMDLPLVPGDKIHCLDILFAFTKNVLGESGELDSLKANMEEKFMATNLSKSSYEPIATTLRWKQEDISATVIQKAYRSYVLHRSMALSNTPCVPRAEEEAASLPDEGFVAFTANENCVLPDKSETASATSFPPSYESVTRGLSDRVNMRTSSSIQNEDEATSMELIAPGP
Chain of NaV1.3 (Q9NY46 whole entry, looked up): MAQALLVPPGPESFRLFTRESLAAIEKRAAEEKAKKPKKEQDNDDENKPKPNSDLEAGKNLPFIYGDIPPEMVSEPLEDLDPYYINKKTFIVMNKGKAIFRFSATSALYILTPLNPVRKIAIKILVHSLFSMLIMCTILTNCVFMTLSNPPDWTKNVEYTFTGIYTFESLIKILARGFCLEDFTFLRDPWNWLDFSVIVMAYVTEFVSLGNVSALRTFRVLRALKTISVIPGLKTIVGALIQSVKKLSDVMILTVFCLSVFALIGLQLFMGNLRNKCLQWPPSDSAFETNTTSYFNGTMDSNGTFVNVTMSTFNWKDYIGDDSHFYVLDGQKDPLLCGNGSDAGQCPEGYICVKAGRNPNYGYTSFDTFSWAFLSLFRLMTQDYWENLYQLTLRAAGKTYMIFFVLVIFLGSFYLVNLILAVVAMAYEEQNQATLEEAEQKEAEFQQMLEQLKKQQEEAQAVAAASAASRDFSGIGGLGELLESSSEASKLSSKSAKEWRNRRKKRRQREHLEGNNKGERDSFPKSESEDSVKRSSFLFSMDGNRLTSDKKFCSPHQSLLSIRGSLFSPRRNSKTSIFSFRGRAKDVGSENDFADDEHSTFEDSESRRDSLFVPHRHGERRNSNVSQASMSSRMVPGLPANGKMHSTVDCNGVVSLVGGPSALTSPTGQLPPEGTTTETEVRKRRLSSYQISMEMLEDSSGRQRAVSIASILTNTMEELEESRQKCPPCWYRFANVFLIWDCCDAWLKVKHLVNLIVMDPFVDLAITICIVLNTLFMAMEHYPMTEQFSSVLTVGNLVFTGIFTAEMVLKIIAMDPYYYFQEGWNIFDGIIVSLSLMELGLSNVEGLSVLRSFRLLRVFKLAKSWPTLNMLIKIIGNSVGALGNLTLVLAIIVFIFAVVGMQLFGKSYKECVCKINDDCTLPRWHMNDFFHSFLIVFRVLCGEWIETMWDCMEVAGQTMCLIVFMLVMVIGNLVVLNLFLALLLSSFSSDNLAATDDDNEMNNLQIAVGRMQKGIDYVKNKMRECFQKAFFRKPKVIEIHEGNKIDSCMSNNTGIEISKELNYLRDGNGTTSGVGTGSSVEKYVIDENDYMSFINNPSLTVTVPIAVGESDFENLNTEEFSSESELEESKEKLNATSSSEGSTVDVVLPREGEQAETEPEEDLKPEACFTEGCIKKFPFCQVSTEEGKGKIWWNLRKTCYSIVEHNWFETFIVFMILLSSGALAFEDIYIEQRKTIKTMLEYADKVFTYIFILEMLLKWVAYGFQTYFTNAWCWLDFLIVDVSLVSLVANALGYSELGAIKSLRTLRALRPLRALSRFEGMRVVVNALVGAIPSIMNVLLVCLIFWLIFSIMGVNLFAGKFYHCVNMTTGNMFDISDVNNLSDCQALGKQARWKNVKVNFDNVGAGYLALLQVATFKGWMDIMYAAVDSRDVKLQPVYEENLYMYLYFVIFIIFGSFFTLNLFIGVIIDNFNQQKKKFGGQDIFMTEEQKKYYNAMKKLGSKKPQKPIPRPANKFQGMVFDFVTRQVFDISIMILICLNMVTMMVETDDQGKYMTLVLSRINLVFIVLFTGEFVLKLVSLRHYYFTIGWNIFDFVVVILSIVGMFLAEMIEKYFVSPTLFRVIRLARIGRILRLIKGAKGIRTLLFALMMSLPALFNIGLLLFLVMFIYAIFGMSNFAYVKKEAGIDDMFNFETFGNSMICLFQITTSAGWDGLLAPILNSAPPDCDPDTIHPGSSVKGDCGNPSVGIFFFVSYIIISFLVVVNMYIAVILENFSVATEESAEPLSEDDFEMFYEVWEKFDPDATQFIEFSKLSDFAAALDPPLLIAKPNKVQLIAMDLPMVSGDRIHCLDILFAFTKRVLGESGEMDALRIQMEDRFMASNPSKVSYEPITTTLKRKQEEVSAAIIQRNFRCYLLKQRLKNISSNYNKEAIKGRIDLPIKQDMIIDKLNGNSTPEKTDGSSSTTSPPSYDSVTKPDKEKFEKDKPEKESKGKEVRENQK

In the case of `NCC1(CC(=O)O)CCCCC1` [Gabapentin], the “share of patients in whom it works” value [1] is listed as 60%.

In the case of `CC(C)COC(=O)NC1CCN(c2nc(-c3ccccc3O)cc3ccccc23)CC1` [Compound 1, Isobutyl 1-(3-(2-hydroxyphenyl)isoquinolin-1-yl)piperidin-4-ylcarbamate], the IC50 [2] is reported as 10000 to 15000 nM.

In the case of `NC1=N[C@H](O)[C@H]2[C@H]3O[C@]4(O)O[C@@H]([C@@H](O)[C@@]2(N1)[C@@H]4O)[C@]3(O)CO` [TTX, tetrodotoxin], the IC50 [3] is given as 6 nM, the IC50 [4] is given as 10 nM and the IC50 [5] is given as over 50000 nM. The IC50 [6] was 15 nM, the IC50 [7] was 1000 nM and the IC50 [8] was 10 nM.

Compound `CC(C)COC(=O)N1CCN(c2nc(-c3ccccc3O)cc3ccccc23)CC1` [Compound 3, Isobutyl 4-(3-(2-hydroxyphenyl)isoquinolin-1-yl)piperazine-1-carboxylate] has an IC50 [2] of over 15000 nM.

For `CC(C)COC(=O)N1CCN(c2nc(-c3ccccc3C(F)F)cc3ccccc23)CC1` [Compound 4, Isobutyl 4-(3-(2-(difluoromethyl)phenyl)isoquinolin-1-yl)piperazine-1-carboxylate], the IC50 [2] was over 15000 nM.
